“And” between values parts separate entries of the source, which are not always exact repeats. Equal entries are not always repeated. Where two headings read alike, the source gives them in different places.
Assays:
HBV Cp Wild type = test: microbe, parasite or virus in culture; format: cell-based, Hepatitis B virus
[1] = human, rat, cynomolgus monkey
Description: In vitro intrinsic clearance (CLint) was determined as follows. […] The calculated CLint was determined from the relationship CLint = k × (volume of incubation in ml/mg microsomal protein) × (mg protein in liver/g liver weight) × (g liver weight/kg body weight). The values for liver weights, body weights, as well as hepatic blood flows (QH) across species were obtained from data reported previously by Davies and Morris ([28]). Values for liver microsome protein/liver weight for mouse, rat, dog, and monkey were […] ([27]), and that for human was 33 mg/g. The calculation used for the prediction of hepatic clearance (CLpred) is CLpred = (QH × CLint)/(QH + CLint).

HBV [2] = system: HBV; parameters: method as in PMID 31711752; conditions: HBeAg-negative patient, day 28 of monotherapy; cited from earlier work
CYP2C19 = biological target: T1, CYP2C19 (Homo sapiens, UniProt P33261); test: CYP inhibition in human liver microsomes, 2C19; format: in vitro ADME; conditions: 0.1–100 μM
T1 construct: in human liver microsomes; from tissue; host or cells: human liver microsomes
T1 sequence (P33261 whole entry): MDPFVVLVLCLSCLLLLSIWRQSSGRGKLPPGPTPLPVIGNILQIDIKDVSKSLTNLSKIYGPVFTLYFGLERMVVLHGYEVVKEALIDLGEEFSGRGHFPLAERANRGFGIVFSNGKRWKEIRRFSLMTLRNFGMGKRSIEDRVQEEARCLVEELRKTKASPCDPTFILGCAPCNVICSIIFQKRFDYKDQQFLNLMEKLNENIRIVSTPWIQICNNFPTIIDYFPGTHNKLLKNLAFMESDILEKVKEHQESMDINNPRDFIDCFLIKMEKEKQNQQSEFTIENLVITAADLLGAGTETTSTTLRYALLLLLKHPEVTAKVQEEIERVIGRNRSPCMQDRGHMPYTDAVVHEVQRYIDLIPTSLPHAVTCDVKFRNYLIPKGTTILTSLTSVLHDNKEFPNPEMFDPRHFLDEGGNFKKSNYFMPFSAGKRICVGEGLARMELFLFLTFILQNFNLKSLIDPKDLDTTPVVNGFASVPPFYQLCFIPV

HBV Cp Y38F = test: microbe, parasite or virus in culture; format: cell-based, Hepatitis B virus
HBV cccDNA = test: cccDNA formation assay in infected HepG2-NTCP cells (Southern blot); format: cell-based; conditions: Hepatitis B virus, 96 h, 4 days, read-out: cccDNA % of Control
CYP1A2 = CYP1A2 (Homo sapiens, UniProt P05177); test: biochemical
Sequence of CYP1A2 (P05177 whole entry): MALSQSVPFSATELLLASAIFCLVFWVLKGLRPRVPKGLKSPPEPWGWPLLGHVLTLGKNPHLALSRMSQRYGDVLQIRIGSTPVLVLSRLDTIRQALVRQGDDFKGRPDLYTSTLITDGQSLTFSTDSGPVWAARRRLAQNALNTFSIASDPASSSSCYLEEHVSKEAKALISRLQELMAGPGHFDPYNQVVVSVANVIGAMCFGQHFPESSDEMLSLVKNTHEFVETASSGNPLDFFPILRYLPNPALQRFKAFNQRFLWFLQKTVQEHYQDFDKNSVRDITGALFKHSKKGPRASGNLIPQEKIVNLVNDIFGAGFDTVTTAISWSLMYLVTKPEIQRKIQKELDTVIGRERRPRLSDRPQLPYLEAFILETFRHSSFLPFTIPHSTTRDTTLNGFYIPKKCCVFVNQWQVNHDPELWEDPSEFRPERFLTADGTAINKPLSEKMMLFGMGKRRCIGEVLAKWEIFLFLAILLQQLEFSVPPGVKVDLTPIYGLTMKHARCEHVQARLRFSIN

in vitro = conditions: human, plasma
[3] = biological target: HBV Cp (3CA Cp150-BODIPY) (Hepatitis B virus genotype D subtype adw, UniProt P03147, C107A/C48A/C61A/R150C); test: HBV Cp in vitro assembly assay (fluorescence quenching)
Sequence of HBV Cp (3CA Cp150-BODIPY) (P03147 1-150 C48A/C61A/C107A/R150C): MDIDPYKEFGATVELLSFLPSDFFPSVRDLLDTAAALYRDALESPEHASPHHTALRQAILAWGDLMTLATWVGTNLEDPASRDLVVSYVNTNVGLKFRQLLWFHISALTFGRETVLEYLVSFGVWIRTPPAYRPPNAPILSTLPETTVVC

[4] = system: NrtI^R HBV (rtL180M/M204V); test: microbe, parasite or virus in culture; format: cell-based, Hepatitis B virus
HBV Cp D29G = test: microbe, parasite or virus in culture; format: cell-based, Hepatitis B virus
[5] = system: HBV (genotype D, subtype ayw); test: HBV replication assay in HepAD38 cells; format: cell-based, Hepatitis B virus; conditions: Hepatitis B virus
CYP2C8 = CYP2C8 (Homo sapiens, UniProt P10632); test: biochemical
Sequence of CYP2C8 (P10632 whole entry): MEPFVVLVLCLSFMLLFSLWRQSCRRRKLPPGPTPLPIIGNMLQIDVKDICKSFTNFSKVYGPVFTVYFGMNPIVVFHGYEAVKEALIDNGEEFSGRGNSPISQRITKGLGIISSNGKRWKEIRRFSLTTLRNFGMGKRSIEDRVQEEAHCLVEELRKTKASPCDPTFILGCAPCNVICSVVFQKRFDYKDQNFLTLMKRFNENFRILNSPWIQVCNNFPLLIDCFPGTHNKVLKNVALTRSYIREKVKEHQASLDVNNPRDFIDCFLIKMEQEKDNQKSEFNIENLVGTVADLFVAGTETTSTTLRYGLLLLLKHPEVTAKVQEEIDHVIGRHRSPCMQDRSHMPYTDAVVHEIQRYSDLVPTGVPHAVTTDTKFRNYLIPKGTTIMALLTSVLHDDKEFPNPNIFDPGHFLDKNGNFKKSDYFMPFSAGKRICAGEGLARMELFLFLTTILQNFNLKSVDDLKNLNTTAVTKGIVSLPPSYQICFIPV

HBV Cp T33N = test: microbe, parasite or virus in culture; format: cell-based, Hepatitis B virus
CYP2D6 = biological target: T2, CYP2D6 (Homo sapiens, UniProt P10635); test: CYP inhibition in human liver microsomes, 2D6; format: in vitro ADME; conditions: 0.1–100 μM
T2 construct: in human liver microsomes; from tissue; host or cells: human liver microsomes
T2 sequence (P10635 whole entry): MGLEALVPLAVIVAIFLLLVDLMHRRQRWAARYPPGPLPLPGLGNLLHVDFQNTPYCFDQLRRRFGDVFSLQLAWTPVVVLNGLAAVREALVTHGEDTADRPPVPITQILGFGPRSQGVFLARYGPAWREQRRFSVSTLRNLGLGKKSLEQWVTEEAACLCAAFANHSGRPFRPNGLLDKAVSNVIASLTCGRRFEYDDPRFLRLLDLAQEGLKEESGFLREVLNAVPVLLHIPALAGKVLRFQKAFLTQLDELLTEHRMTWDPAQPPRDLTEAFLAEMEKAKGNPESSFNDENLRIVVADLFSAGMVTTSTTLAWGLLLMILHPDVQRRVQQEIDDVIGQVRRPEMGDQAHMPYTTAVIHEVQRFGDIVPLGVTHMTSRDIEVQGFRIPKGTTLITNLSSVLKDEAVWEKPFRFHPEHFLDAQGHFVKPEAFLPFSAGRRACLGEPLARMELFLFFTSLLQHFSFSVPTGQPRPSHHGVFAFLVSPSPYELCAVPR

[6] = system: HBV genotypes A, B, C, and D; test: microbe, parasite or virus in culture; format: cell-based; conditions: Hepatitis B virus, read-out: VR EC50s
HBV [7] = test: Extracellular HBV DNA and pgRNA in HepAD38 cells (qPCR, RT-qPCR); format: cell-based, Hepatitis B virus
Source text: For HBV RNA Northern blot analysis, total cellular RNA or encapsidated pgRNA samples were resolved in a 1.5% agarose gel containing 2.2 M formaldehyde and transferred onto a Hybond-XL membrane (GE Healthcare). For DNA Southern blot analysis, HBV core DNA or cccDNA samples were resolved by electrophoresis in a 1.2% agarose gel and blotted onto a Hybond-XL membrane. Membranes were probed with either an [α-^32P]UTP (3,000 Ci/mmol; PerkinElmer)-labeled plus-strand-specific (for Northern blot hybridization) or minus-strand-specific (for Southern blot hybridization) HBV riboprobe and exposed to a phosphorimager screen. Extracellular HBV DNA and RNA were copurified from the culture medium of induced HepAD38 cells by using a MinElute virus vacuum kit (Qiagen). Viral DNA was quantified using the above-mentioned qPCR method directly, and HBV RNA was detected by RT-qPCR with the same core region primer/probe set after the removal of DNA contamination by DNase I (Thermo Fisher) treatment.

HBV cell culture models = conditions: concentrations of up to 10 μM
HBV [8] = test: HBV DNA replication in cell culture systems (HepAD38, HepG2-NTCP, PHHs), summary; conditions: Hepatitis B virus, HePAD38, read-out: EC50, inhibition of HBV DNA replication
Source text: The first is an HBV-inducible cell line (HepAD38) that bears a single “1.1 copy” of the HBV genome (genotype D, subtype ayw) under the control of a cytomegalovirus (CMV) tetracycline (Tet)-off promoter ([13]), and the second utilizes HBV infection of either a HepG2-derived cell line stably expressing the HBV entry receptor sodium taurocholate cotransporting polypeptide (NTCP) (HepG2-NTCP) or primary human hepatocytes (PHHs). The primary marker measured for inhibition of HBV replication in the cell culture systems is viral DNA.
HepAD38 cells were trypsinized and then washed three times with phosphate-buffered saline (PBS) to remove traces of Tet. Cells were seeded into 96-well plates in assay medium (DMEM–F-12 medium with 2% Tet-free FBS) and treated with compounds. Supernatants and cells were harvested at 5 days postinduction.
HepG2-NCTP cells were infected with purified HepAD38 virus at a multiplicity of infection (MOI) of 50 in infection medium (DMEM, 5% FBS, 2% DMSO, 5% PEG 8000). Following infection, HepG2-NTCP cells were washed twice and switched to HepG2-NTCP treatment medium (DMEM, 5% FBS). PHHs were infected with HBV at an MOI of 50 in infection medium and grown in PHH maintenance medium for the duration of the experiment. Compounds were added after infection. […] Intracellular HBV DNA and pgRNA were measured by branch DNA (bDNA) assays (Thermo Fisher).

HBV capsid DNA = test: Incoming capsid assay in PHH cells; format: cell-based; conditions: Hepatitis B virus, 3 h, read-out: Capsid DNA % of Control
[9] = system: herpes simplex virus 1, human rhinovirus 16, influenza A virus; test: Cell protection assays with 3 unrelated viruses; conditions: concentrations of up to 10 μM
HBV [10] = test: De novo infection models (HepG2-NTCP and PHH), summary; format: cell-based, Hepatitis B virus; conditions: Hepatitis B virus; range over two de novo infection models; read-out: EC50, suppression of cccDNA formation
[11] = in vivo
[12] = Hepatitis B virus, Huh-7, read-out: Mean EC50
[13] = HepAD38, concn ETV 0.01, ABI-H0731 2.0, GLS4 0.5, NVR 3-778 2.5, AT-130 0.8, VRD-32 0.8 μM

## O=C(NCc1cnc(C(F)(F)F)s1)c1ccc2c(c1)NC(=O)c1ccccc1S2(=O)=O [ABI-H0731]
HBV Cp Wild type; [12]
  EC50: 146 ± 21 nM
HBV Cp Wild type; Wild type
  Fold shift: 1 fold
[1]; mouse, 0.5 μM
  CLpred as % of liver blood flow: 12-21%
[1]; 1 μM
  CLpred: 2.3 to 21 mL/min/kg
  CLpred as % of liver blood flow: 11-32%
HBV [2]
  decline in viral load in a patient harboring T109M at baseline: 1.0 log and 1 log
CYP2C19
  IC50: 42800 nM
HBV Cp Y38F; [12]
  EC50: 481 ± 34 nM
HBV Cp Y38F; Y38F vs wild type
  Fold shift: 3.3 fold
HBV cccDNA; 0.04 μM
  activity at 0.04 µM: 89%
HBV cccDNA; 0.12 μM
  activity at 0.12 µM: 95%
HBV cccDNA; 0.37 μM
  activity at […]: 98%
HBV cccDNA; 1.11 μM
  activity at 1.11 µM: 94%
HBV cccDNA; 3.33 μM
  activity at 3.33 µM: 86%
HBV cccDNA; 10.0 μM
  activity at 10 µM: 30%
CYP1A2
  IC50: > 100000 nM
In vitro
  fraction unbound at 6 h, 3 μM: 0.031
  fraction unbound at 6 h, 10 μM: 0.034
  fraction unbound at 6 h, 30 μM: 0.024
[3]
  IC50: 267 nM
[4]; HepG2-NrtI^R versus HepAD38 (wild type)
  Fold shift: 1.2 fold
[4]; Hepatitis B virus, 96 h, read-out: Mean EC50
  EC50: 262 ± 97 nM
HBV Cp D29G; D29G vs wild type
  Fold shift: 20 fold
HBV Cp D29G; [12]
  EC50: 2960 nM
[5]; HePAD38, HepAD38, concomitantly determined with HepG2-NrtI^R, read-out: Mean EC50
  EC50: 221 ± 19 nM
[5]; HePAD38, HepAD38, total intracellular viral DNA, read-out: Mean EC50, viral DNA
  EC50: 173 ± 40 nM
CYP2C8
  IC50: 27200 nM
HBV Cp T33N; [12]
  EC50: 3060 nM
HBV Cp T33N; T33N vs wild type
  Fold shift: 21 fold
CYP2D6
  IC50: 29600 nM
[6]
  EC50: 86 to 142 nM
HBV [7]; HepAD38, 10-fold over VR EC50
  secretion of HBV RNA and DNA in the culture medium: ≤ 3 % of the DMSO control
HBV [7]; [13]
  Extracellular DNA content (% of DMSO control): 1.4 % of DMSO control
  Extracellular pgRNA content (% of DMSO control): 3.1 % of DMSO control
HBV cell culture models
  cytotoxicity: No cytotoxicity was observed
HBV [8]
  EC50: 173 to 307 nM
HBV capsid DNA; 0.37 μM
  activity at […]: 71%
HBV capsid DNA; 1.11 μM
  activity at 1.11 µM: 60%
HBV capsid DNA; 3.33 μM
  activity at 3.33 µM: 32%
HBV capsid DNA; 10.0 μM
  activity at 10 µM: 9%
[9]
  inhibitory activity against unrelated viruses: no significant inhibitory activity
HBV [10]
  EC50: 1840 to 7300 nM
[11]
  target organ or dose-limiting toxicities: no specific target organ or dose-limiting toxicities

Source: publication PMC7577125 (Antimicrobial Agents and Chemotherapy, 2020)
